ChEMBL document CHEMBL1862790, “Optimisation of fenarimol series for the treatment of Chagas disease”

What was measured:
[1] = system: Trypanosoma cruzi; assay: microbe, parasite or virus in culture; format: functional, organism-based, Tulahuen LacZ, Clone C4; details: Trypanosoma cruzi, Tulahuen LacZ, Clone C4
[2] = DNDI: Cytotoxicity against L-6 rat myoblasts from skeletal muscle cells; details: L6 rat skeletal muscle myoblast cells, IC50
[3] = system: Trypanosoma cruzi; assay: microbe, parasite or virus in culture; format: functional, Tulahuen LacZ, Clone C4
[4] = Trypanosoma cruzi, Tulahuen LacZ, Clone C4

Compound	IC50 [1] [nM]	IC90 [3, 4] [nM]	IC90 [3] [nM]	IC50 [2] [nM]
CC(C)Oc1ccc(C(NC2CCN(C(=O)Nc3ccccc3)CC2)c2cccnc2)cc1 (stereo not drawn)	72	250	–	72100
O=C(N1CCN(C(c2cccnc2)c2ccc(Cl)cc2F)CC1)C(F)(F)F (stereo not drawn)	320	830	–	> 100000
CC(C)Oc1ccc(C(c2cccnc2)N(C(=O)C2CC2)C2CCN(C(=O)C3CC3)CC2)cc1 (stereo not drawn)	> 1000	> 1000	–	> 100000
Cc1cc(C(=O)N2CCC(NC(c3ccc(C(F)(F)F)cc3)c3cccnc3)CC2)no1 (stereo not drawn)	120	350	–	> 100000
CS(=O)(=O)NC1CCN(C(c2cccnc2)c2ccc(Cl)cc2F)CC1 (stereo not drawn)	83	364	–	> 100000
CS(=O)(=O)NC1CCN(C(c2ccc(Cl)cc2)c2cncnc2)CC1 (stereo not drawn)	630	> 1000	–	> 100000
CCN(CC)C(=O)NC1CCN(C(c2ccc(Cl)cc2)c2cccnc2)CC1 (stereo not drawn)	120	730	–	> 100000
CCN(CC)C(=O)NC1CCN(C(c2ccc(Cl)cc2)c2cncnc2)CC1 (stereo not drawn)	110	860	–	> 100000
Cc1cc(C(=O)NC2CCN(C(c3cncnc3)c3ccc(Cl)cc3F)CC2)no1 (stereo not drawn)	76	377	–	> 100000
CS(=O)(=O)NC1CCN(C(c2ccc(Cl)cc2)c2cccnc2)CC1 (stereo not drawn)	100	640	–	> 100000
O=C(NC1CCN(C(c2ccc(C(F)(F)F)cc2)c2cccnc2)CC1)C1CC1 (stereo not drawn)	72	280	–	> 100000
CCN(CC)C(=O)NC1CCN(C(c2ccc(OC(C)C)cc2)c2cccnc2)CC1 (stereo not drawn)	87	280	–	> 100000
CC(C)Oc1ccc(C(NC2CCN(C(=O)c3ccccc3)CC2)c2cccnc2)cc1 (stereo not drawn)	74	270	–	> 100000
O=C(NC1CCN(C(c2ccc(Cl)cc2)c2cncnc2)CC1)c1ccccc1 (stereo not drawn)	75	790	–	90800
Cc1cc(C(=O)N2CCC(NC(c3ccc(C(F)(F)F)cc3)c3cccnc3)CC2)[nH]n1 (stereo not drawn)	200	640	–	> 100000
O=C(Nc1ccccc1)NC1CCN(C(c2ccc(Cl)cc2)c2cncnc2)CC1 (stereo not drawn)	100	> 1000	–	54400
CC(C)Oc1ccc(C(c2cccnc2)N2CCC(NS(C)(=O)=O)CC2)cc1 (stereo not drawn)	110	320	–	> 100000
NC(=O)c1cccc(C(O)(c2cncnc2)c2ccc(Cl)cc2F)c1 (stereo not drawn)	86.5	426	–	> 100000
CC(C)Oc1ccc(C(NC2CCN(S(C)(=O)=O)CC2)c2cccnc2)cc1 (stereo not drawn)	140	380	–	> 100000
O=C(NC1CCN(C(c2ccc(Cl)cc2)c2cncnc2)CC1)C1CC1 (stereo not drawn)	480	> 1000	–	> 100000
CS(=O)(=O)N1CCC(C(O)(c2ccc(Cl)cc2)c2cccnc2)CC1 (stereo not drawn)	200	550	–	> 100000
Cc1ncoc1C(=O)N1CCC(NC(c2ccc(C(F)(F)F)cc2)c2cccnc2)CC1 (stereo not drawn)	140	540	–	> 100000
CC(C)Oc1ccc(C(c2cccnc2)N2CCC(NC(=O)C3CC3)CC2)cc1 (stereo not drawn)	380	860	–	> 100000
O=C(NC1CCN(C(c2cncnc2)c2ccc(Cl)cc2F)CC1)C1CC1 (stereo not drawn)	150	480	–	> 100000
CC(C)Oc1ccc(C(O)(c2cccnc2)c2cccc(C(N)=O)c2)cc1 (stereo not drawn)	92	330	–	69700
CC(C)Oc1ccc(C(c2cccnc2)N2CCC(NC(=O)c3ccccc3)CC2)cc1 (stereo not drawn)	61	180	–	> 100000
NC(=O)c1cccc(C(O)(c2ccc(Cl)cc2)c2cncnc2)c1 (stereo not drawn)	920	2780	–	> 100000
O=C(NC1CCN(C(c2ccc(Cl)cc2)c2cccnc2)CC1)C1CC1 (stereo not drawn)	78	580	–	84100
CC(C)Oc1ccc(C(c2cccnc2)N2CCC(NC(=O)Nc3ccccc3)CC2)cc1 (stereo not drawn)	57	110	–	74200
CS(=O)(=O)NC1CCN(C(c2ccc(C#N)cc2)c2cccnc2)CC1 (stereo not drawn)	600	> 1000	–	> 100000

Stronger by IC50 [1], values ahead:

IC50 [1] [nM]	IC90 [3, 4] [nM]	IC90 [3] [nM]	Compound	IC50 [2] [nM]
50	150	–	CS(=O)(=O)NC1CCN(C(c2ccc(C(F)(F)F)cc2)c2cccnc2)CC1 (stereo not drawn)	> 100000
50	250	–	CCN(CC)C(=O)NC1CCN(C(c2cncnc2)c2ccc(Cl)cc2F)CC1 (stereo not drawn)	58100
48	150	–	Cc1cc(C(=O)NC2CCN(C(c3ccc(C(F)(F)F)cc3)c3cccnc3)CC2)[nH]n1 (stereo not drawn)	73100
48	190	–	O=C(c1ccc(F)c(C(O)(c2ccc(Cl)cc2)c2cccnc2)c1)N1CCOCC1 (stereo not drawn)	> 100000
40.5	204	–	O=C(NC1CCN(C(c2cncnc2)c2ccc(Cl)cc2F)CC1)c1cccc(F)c1 (stereo not drawn)	61200
40	100	–	CC(C)Oc1ccc(C(O)(c2ccc(Cl)cc2)c2cncnc2)cn1 (stereo not drawn)	85900
38	130	–	O=C(NC1CCN(C(c2cccnc2)c2ccc(Cl)cc2F)CC1)C1CC1 (stereo not drawn)	> 100000
30	190	–	O=C(Nc1ccccc1)NC1CCN(C(c2cncnc2)c2ccc(Cl)cc2F)CC1 (stereo not drawn)	56000
29	120	–	Cc1ncoc1C(=O)NC1CCN(C(c2ccc(C(F)(F)F)cc2)c2cccnc2)CC1 (stereo not drawn)	84700
29	95	–	N#Cc1ccc(C(c2cccnc2)N2CCC(NC(=O)Nc3ccccc3)CC2)cc1 (stereo not drawn)	> 100000
28	85	–	CCN(CC)C(=O)NC1CCN(C(c2ccc(C#N)cc2)c2cccnc2)CC1 (stereo not drawn)	> 100000
26	100	–	CC(C)(C)OC(=O)NC1CCN(C(c2ccc(C#N)cc2)c2cccnc2)CC1 (stereo not drawn)	> 100000
26	82	–	O=C(C1CC1)N1CCN(C(c2cccnc2)c2ccc(Cl)cc2F)CC1 (stereo not drawn)	> 100000
25	80	–	CC(C)Oc1ccc(C(c2cccnc2)N2CCC(NC(=O)OC(C)(C)C)CC2)cc1 (stereo not drawn)	56000
24	79	90	N#Cc1ccc(C(c2cccnc2)N2CCC(NC(=O)c3ccccc3)CC2)cc1 (stereo not drawn)	> 100000
22	110	–	O=C(NC1CCN(C(c2cncnc2)c2ccc(Cl)cc2F)CC1)c1ccccc1 (stereo not drawn)	82400
18	82	–	Cc1ncsc1C(=O)NC1CCN(C(c2ccc(C(F)(F)F)cc2)c2cccnc2)CC1 (stereo not drawn)	60400
17.5	95.5	–	O=C(NC1CCN(C(c2cncnc2)c2ccc(Cl)cc2F)CC1)c1ccccc1F (stereo not drawn)	> 100000
14	36	–	O=C(Nc1ccccc1)NC1CCN(C(c2ccc(C(F)(F)F)cc2)c2cccnc2)CC1 (stereo not drawn)	31700
11	38	–	CC(C)(C)OC(=O)NC1CCN(C(c2ccc(C(F)(F)F)cc2)c2cccnc2)CC1 (stereo not drawn)	48000
9.3	27	–	Cc1cc(C(=O)NC2CCN(C(c3ccc(C(F)(F)F)cc3)c3cccnc3)CC2)no1 (stereo not drawn)	47400
8.25	83.3	–	O=C(NC1CCN(C(c2cccnc2)c2ccc(Cl)cc2F)CC1)c1ccccc1 (stereo not drawn)	56400
7	36	–	CCN(CC)C(=O)N1CCC(NC(c2ccc(OC(C)C)cc2)c2cccnc2)CC1 (stereo not drawn)	> 100000
6.2	11	–	CC(C)Oc1ccc(C(NC2CCN(C(=O)OC(C)(C)C)CC2)c2cccnc2)cc1 (stereo not drawn)	58800
